The target of one data set is Kv1.3 (UniProt P16390). Description: Whole-cell patch-clamp block of Kv1.3 current. Format: cell-based. Particulars: for Kd: L929 cells stably expressing mKv1.3 or activated human T cells, fit of normalized peak current to Hill equation. The method, then: The effectiveness of the generated compounds in blocking the Kv1.3 current was assayed on L929 cells stably expressing mKv1.3 or on activated human T cells. The generation of this cell line has been previously described (Grissmer et al. (1995) Mol. Pharmacol. 45: 1227). The cells were grown in Dulbecco's modified Eagle's medium containing 10% fetal calf serum, 2 mM L-glutamine, 1 mM Na^+ pyruvate, 100 units/ml penicillin, 100 μg/ml streptomycin and 250 μg G418 (to keep them under selection pressure). The cells were studied in the whole-cell configuration of the patch-clamp technique. The holding potential in all experiments was −80 mV. Currents were recorded in normal Ringer solution (160 mM NaCl, 4.5 mM KCl, 2 mM CaCl2, 1 mM MgCl2, 10 mM HEPES, pH 7.4, 290-310 mOsm) with an internal pipette solution containing 134 mM KF, 2 mM MgCl2, 10 mM HEPES, 10 mM EGTA (pH 7.2, 290-310 mOsm). If currents exceeded 2 nA 60-80% series resistance compensation was used. 200-ms depolarising pulses to 40 mV were applied every 30 s (Grissmer at al. (1995) Mol. Pharmacol. 45: 1227). Each compound was tested twice at two different concentrations. Kd values were determined by fitting the reduction of the normalized peak current to the Hill equation. […]

A further data set has as its target Kv1.2 (Homo sapiens, UniProt P16389). Briefly: Whole-cell patch-clamp, Kv1.2. Format: cell-based. On the technique in general: Patch clamp records ionic current or voltage across a cell membrane.
A short description of data set [1]: Solubility in aqueous media. Format: physicochemical. Particulars: judged by whether testable in the cell-based T-cell proliferation assay. The source says:
(§1) The comparative example 4 was thus considered to lack therapeutically use.
This was unexpected given the lipophilicity of these compounds. The n-butyl fragment in example 2 is considerably more lipophilic than the phenyl group located in the equivalent position of comparative example 4 (fragment hydrophobicity value 2.5 verses 1.9 respectively).

A further data set deals with Kv1.1 (Homo sapiens, UniProt Q09470). Description: Whole-cell patch-clamp, Kv1.1. Format: cell-based.
Chain of Kv1.1 (Q09470 whole entry): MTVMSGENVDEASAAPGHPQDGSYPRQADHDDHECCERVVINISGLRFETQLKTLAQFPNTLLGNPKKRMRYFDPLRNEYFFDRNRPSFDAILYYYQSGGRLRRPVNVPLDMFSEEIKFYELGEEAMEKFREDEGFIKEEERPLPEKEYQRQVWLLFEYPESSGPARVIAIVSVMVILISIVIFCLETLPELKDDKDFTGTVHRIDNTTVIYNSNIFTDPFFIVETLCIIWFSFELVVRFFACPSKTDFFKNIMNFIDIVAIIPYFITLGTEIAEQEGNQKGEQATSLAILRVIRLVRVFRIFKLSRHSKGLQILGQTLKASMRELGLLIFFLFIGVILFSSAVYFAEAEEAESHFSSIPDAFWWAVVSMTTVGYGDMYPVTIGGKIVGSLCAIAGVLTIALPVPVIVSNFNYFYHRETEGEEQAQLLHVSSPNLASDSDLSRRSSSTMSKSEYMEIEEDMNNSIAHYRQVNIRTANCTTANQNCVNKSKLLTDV
Another data set concerns the target Kv1.4 (Homo sapiens, UniProt P22459). Description: Whole-cell patch-clamp, Kv1.4. Format: cell-based.
Another data set concerns the target Kv1.5 (Homo sapiens, UniProt P22460). Description: Whole-cell patch-clamp, Kv1.5. The class given is cell-based.
Another data set deals with IKCa1 (Homo sapiens, UniProt O15554). Description: Whole-cell patch-clamp, IKCa1. Format: cell-based.
Another data set addresses SKMI (Homo sapiens, UniProt P35499). Description: Whole-cell patch-clamp, SKMI. Format: cell-based. The conditions noted are these: at 10 μM.
The nature of another data set: Stability. The class given is physicochemical.
Text: as §1

The test system of data set [2] is peripheral blood mononuclear cells. Description: [3H]-Thymidine incorporation assay. Particulars: anti-CD3 stimulated PBMC, 48 h; for Normalised [3H]-TdR incorporation: untreated control = 1. The class given is cell-based, human. The method, then:
[^3H]-thymidine incorporation is a widely used test to assay the proliferative activity of human and rodent lymphocytes. As cells divide [^3H]-thymidine will be incorporated into the newly synthesised DNA of the resulting daughter cells. The faster cells grow the more radioactive [^3H]-thymidine will be incorporated. Any compound that inhibits lymphocytes proliferation will reduce the uptake of radioactivity by the cells treated with it compared to the untreated controls.
Example 2 was tested to determine its ability to inhibit [H]-thymidine incorporation. Resting peripheral blood mononuclear cells from healthy volunteers were seeded at 2×10^5 cells per well in medium (RPMI 1640 supplemented 10% fetal calf serum, 2 mM glutamine, 1 mM sodium pyruvate, 1% nonessential amino acids, 100 units/ml penicillin, 100 μg/ml streptomycin and 50 μM β-mercaptoethanol) in flat-bottom 96 well plates (final volume 200 μl). Cells were pre-incubated with the compound of example 2 for 60 min, and were stimulated with 5 ng/ml anti-CD3 Ab) for 48 h. [^3H]-Thymidine (1 μCi per well) was added for the last 6 h. Cells were harvested onto glass fibre filters and radioactivity measured in a scintillation counter. All experiments were done in triplicate.

This is an account of results in US7507839B2, “Therapeutic ion channel blocking agents and methods of use thereof” (The Walter and Eliza Hall Institute of Medical Research, priority 2002, dated 2009).

Structures are written as SMILES. A value given as a limit tells only on which side of the number the result lay.

As a reminder, the Kd is the constant that tells how readily two partners part at equilibrium. Read a low Kd as higher affinity. As a reminder, the melting point is the temperature of the solid-liquid transition.

Chain of Kv1.2 (P16389 whole entry): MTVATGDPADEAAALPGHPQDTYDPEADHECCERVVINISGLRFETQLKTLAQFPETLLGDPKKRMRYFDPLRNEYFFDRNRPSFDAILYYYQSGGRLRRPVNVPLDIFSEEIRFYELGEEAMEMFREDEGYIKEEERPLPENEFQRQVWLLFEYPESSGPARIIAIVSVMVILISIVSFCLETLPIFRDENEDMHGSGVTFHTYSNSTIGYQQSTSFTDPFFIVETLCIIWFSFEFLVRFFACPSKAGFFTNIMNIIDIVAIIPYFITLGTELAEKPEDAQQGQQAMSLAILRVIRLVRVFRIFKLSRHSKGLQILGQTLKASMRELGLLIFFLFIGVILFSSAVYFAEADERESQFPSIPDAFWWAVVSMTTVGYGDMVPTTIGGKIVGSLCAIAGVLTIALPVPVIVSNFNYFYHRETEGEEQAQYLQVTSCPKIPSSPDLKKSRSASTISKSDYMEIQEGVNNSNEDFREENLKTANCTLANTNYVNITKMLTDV
Chain of Kv1.5 (P22460 whole entry): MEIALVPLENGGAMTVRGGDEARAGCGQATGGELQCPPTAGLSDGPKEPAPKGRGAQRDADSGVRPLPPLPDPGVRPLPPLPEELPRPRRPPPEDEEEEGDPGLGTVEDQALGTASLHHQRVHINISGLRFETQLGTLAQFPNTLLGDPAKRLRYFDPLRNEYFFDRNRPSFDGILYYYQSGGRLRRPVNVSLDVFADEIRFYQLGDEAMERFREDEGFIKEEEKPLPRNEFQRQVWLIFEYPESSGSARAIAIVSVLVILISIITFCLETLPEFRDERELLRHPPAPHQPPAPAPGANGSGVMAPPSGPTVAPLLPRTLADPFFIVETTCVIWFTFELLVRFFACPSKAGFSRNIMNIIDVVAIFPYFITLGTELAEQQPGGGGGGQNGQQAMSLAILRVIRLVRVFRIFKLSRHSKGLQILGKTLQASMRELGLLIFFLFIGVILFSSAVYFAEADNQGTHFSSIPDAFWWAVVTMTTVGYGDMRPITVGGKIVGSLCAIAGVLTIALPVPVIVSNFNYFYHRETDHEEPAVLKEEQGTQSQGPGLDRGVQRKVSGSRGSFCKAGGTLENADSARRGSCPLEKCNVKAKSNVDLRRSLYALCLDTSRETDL
Chain of Kv1.4 (P22459 whole entry): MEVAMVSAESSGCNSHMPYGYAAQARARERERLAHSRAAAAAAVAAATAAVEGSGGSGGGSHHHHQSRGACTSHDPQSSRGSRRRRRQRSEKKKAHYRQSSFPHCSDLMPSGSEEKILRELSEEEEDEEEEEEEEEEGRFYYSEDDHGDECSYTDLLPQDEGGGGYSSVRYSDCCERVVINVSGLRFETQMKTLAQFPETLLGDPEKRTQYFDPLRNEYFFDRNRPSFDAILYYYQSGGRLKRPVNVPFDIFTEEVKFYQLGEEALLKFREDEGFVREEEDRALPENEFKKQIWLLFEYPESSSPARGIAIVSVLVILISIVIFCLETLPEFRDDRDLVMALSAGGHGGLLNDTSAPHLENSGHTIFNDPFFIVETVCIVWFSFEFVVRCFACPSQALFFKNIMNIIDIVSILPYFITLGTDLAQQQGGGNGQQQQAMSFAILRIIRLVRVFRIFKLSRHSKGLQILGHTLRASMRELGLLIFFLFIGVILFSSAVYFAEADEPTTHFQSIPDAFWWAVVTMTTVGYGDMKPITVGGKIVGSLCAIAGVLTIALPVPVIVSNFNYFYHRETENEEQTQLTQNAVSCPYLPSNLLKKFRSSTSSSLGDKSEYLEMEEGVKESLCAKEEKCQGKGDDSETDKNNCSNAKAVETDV
Chain of SKMI (P35499 whole entry): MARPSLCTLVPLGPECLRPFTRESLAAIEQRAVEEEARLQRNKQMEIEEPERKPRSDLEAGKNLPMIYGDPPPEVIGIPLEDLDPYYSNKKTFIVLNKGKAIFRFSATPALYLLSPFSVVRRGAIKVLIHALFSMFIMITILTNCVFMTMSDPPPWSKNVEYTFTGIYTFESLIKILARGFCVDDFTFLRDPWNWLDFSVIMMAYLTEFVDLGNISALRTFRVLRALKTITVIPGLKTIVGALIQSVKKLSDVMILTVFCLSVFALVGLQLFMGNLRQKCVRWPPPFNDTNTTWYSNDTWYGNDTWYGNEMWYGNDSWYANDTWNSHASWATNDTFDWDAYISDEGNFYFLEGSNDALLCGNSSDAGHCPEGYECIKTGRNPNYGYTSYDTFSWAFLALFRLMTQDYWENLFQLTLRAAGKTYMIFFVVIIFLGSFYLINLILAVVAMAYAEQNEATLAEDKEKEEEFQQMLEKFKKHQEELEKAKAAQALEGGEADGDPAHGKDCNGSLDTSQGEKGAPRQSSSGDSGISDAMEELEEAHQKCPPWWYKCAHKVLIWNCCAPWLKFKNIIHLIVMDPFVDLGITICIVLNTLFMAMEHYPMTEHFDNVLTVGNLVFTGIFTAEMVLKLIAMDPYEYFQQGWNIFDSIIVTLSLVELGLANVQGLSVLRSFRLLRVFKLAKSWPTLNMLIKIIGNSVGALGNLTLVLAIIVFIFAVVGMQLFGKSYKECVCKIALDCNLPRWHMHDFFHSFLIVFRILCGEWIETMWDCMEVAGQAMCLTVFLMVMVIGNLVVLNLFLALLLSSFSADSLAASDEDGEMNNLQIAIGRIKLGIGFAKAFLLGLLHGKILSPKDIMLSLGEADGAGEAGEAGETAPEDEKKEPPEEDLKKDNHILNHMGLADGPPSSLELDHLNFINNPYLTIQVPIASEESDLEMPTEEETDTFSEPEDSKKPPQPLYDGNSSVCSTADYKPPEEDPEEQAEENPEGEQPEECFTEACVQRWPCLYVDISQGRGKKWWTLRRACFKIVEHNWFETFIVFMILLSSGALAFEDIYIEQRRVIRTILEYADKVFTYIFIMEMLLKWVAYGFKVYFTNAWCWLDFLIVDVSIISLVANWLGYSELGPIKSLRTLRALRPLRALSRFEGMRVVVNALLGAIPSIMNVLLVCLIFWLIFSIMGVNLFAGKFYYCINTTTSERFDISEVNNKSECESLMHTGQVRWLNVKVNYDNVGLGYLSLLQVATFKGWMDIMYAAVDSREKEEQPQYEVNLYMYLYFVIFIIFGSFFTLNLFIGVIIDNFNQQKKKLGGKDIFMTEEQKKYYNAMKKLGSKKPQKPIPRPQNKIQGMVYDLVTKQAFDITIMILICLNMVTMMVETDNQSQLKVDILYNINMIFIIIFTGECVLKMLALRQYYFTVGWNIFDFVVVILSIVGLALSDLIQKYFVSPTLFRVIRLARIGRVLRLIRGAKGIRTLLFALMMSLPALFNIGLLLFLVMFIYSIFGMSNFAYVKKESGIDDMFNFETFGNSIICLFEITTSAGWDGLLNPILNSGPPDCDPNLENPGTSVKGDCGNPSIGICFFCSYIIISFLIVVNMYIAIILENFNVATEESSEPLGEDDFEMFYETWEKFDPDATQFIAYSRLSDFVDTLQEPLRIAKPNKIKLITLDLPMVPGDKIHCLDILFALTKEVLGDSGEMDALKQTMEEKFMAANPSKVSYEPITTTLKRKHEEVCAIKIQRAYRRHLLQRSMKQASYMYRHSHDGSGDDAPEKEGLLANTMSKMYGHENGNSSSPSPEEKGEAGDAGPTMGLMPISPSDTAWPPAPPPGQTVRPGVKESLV

Take `COc1c(C(C)=O)c(OCc2ccc(COc3c(C(C)=O)c(OC)c4ccoc4c3OC)c(C(=O)O)c2)c(OC)c2occc12` [Example 8, 2,5-Bis(5-acetyl-4,7-dimethoxybenzofuran-6-yloxymethyl)benzoic acid]: on Kv1.3, the Kd was 5000 nM.
In the case of `COc1c(C(C)=O)c(OCCCCCOc2c(C(C)=O)c(OC)c3ccoc3c2OC)c(OC)c2occc12` [Example 1], the Kd at Kv1.3 was determined as 820 nM; at Kv1.2, 1500 nM. For the same compound, the “Solubility in aqueous media” value in [1] is reported as “soluble enough in aqueous media to be tested”.
Regarding `COc1c2occc2cc2ccc(=O)oc12` [Comparative Example 2 (3-MOP)], the Kd at Kv1.3 turned out to be 160000 nM.
In turn, `O=c1ccc2cc3ccoc3c(OCc3ccc(COc4c5occc5cc5ccc(=O)oc45)cc3)c2o1` [compound 3, reference compound] came in with a Kd at Kv1.3 of 17000 nM. Against the preceding compound, the Kd is about 9.4-fold lower.
In turn, `COc1c(C(C)=O)c(O)c(OC)c2occc12` [Comparative Example 1 (Khellinone)] returned a Kd on Kv1.3 of 70000 nM.
On the same count and under the same terms, then `COc1c(C(C)=O)c(OCc2cccc(COc3c(C(C)=O)c(OC)c4ccoc4c3OC)c2)c(OC)c2occc12` [compound 5, reference compound], with 560 nM.
As for `COc1c(C(C)=O)c(OCc2ccc(COc3c(C(C)=O)c(OC)c4ccoc4c3OC)cc2)c(OC)c2occc12` [compound 4], the Kd at Kv1.3 was 280 nM; on Kv1.1, 3000 nM; at Kv1.2, 5000 nM; on Kv1.4, 2200 nM; at Kv1.5, 1100 nM; at IKCa1, more than 20000 nM. In addition, the “Effect on SKMI” value at SKMI is listed as “No effect”. For the same compound, the “Solubility in aqueous media” value in data set [1] is recorded as “so poorly soluble in aqueous media”. For the same compound, the Stability result in the data set “Stability” is “good stability”.
`COc1c(C(C)=O)c(OCCOCCOc2c(C(C)=O)c(OC)c3ccoc3c2OC)c(OC)c2occc12` [Example 5] gave a Kd on Kv1.3 of 4000 nM. Further, in data set [1], the “Solubility in aqueous media” value is on record as “significantly more soluble in aqueous conditions than comparative example 2”.
`COc1c(C(C)=O)c(OCc2ccccc2COc2c(C(C)=O)c(OC)c3ccoc3c2OC)c(OC)c2occc12` [compound 6, reference compound]: binding at Kv1.3 was characterised by a dissociation constant (Kd) of 7000 nM.
On Kv1.3, `COc1c(C(C)=O)c(OCc2ccc(COc3cc4occc4c(OC)c3C(C)=O)cc2)cc2occc12` [Example 4, 1,4-bis(5-acetyl-4-methoxybenzofuran-6-yloxymethyl)benzene] came in with a Kd of 1100 nM. For the same compound, on Kv1.2 (at 5 μM), the “Effect on Kv1.2” value is “No effect”.
For the compound `COc1c(C(C)=O)c(OCCCCCCOc2c(C(C)=O)c(OC)c3ccoc3c2OC)c(OC)c2occc12` [Example 2], the “Kind of block (Kv1.3)” value on Kv1.3 is “Block phasic”. The Kd on Kv1.3 amounted to 680 nM; at Kv1.1, 320 nM; at Kv1.2 it was 250 nM. Moreover, the “Normalised [3H]-TdR incorporation” value in [2] (100 nM) is reported as 0.86 +/− 0.04; in data set [2] (250 nM), 0.76 +/− 0.06; in data set [2] (1 μM) it was 0.38 +/− 0.05; in [2] (10 μM), 0.01 +/− 0.003. Also, in [2] (Homo sapiens, read-out: EC50, inhibition of [3H]-thymidine incorporation), the EC50 is approximately 800 nM. Further, the “Solubility in aqueous media” value in data set [1] was “soluble enough in aqueous media to be tested”.
With `COC(=O)c1cc(COc2c(C(C)=O)c(OC)c3ccoc3c2OC)ccc1COc1c(C(C)=O)c(OC)c2ccoc2c1OC` [Example 7, 2,5-Bis(5-acetyl-4,7-dimethoxy-6-benzofuran-6-yloxymethyl)benzoic acid, methyl ester], the melting point lay in the range of 87 to 89 °C. Binding at Kv1.3 was put at a Kd of 3000 nM.
